From ChEMBL document CHEMBL3508693 (2016)

Experiments:
[1] = Cmax of aliskiren hemifumarate following 4 week oral dietary dosing of aliskiren hemifumarate at 500 mg.Kg-1 level in male mouse; assay type: ADME, organism-based; conditions: CB6F1-TGrasH2, mouse, in vivo
[2] = Bioavailability (0-168h) of unlabeled aliskiren hemifumarate following single oral administration of aliskiren hemifumarate at 3 mg.Kg-1 level in marmoset; assay type: ADME, organism-based, Callithrix jacchus; conditions: plasma
[3] = Plasma clearance (0-96h) of unlabeled aliskiren hemifumarate following intravenous administration of aliskiren hemifumarate at 10 mg.Kg-1 level in rat; assay type: ADME, organism-based, Albino HAN:WIST; conditions: in vivo
[4] = Tmax of aliskiren hemifumarate following single dosing of SPP100B oral solution at 80 mg level studied on day 1 in men; assay type: ADME, organism-based; conditions: male, human, plasma
[5] = Tmax of aliskiren hemifumarate following 2 week oral dosing of aliskiren hemifumarate at 100 mg.Kg-1 level studied on day 14 in male Callithrix jacchus; assay type: ADME, organism-based; conditions: marmoset, plasma
[6] = Cmax of aliskiren hemifumarate following 4 week oral dietary dosing of aliskiren hemifumarate at 1500 mg.Kg-1 level in female mouse; assay type: ADME, organism-based; conditions: CB6F1-TGrasH2, mouse, in vivo
[7] = Cmax of aliskiren hemifumarate following 4 week oral dietary dosing of aliskiren hemifumarate at 2000 mg.Kg-1 level in male mouse; assay type: ADME, organism-based; conditions: CB6F1-TGrasH2, mouse, in vivo
[8] = Cmax of aliskiren hemifumarate following 2 week oral dosing of aliskiren hemifumarate at 50 mg.Kg-1 level studied on day 1 in female Callithrix jacchus; assay type: ADME, organism-based; conditions: marmoset, plasma
[9] = AUC of aliskiren hemifumarate following single dosing of SPP100B oral solution at 160 mg level studied on day 1 in men; assay type: ADME, organism-based; conditions: male, human, plasma
[10] = Cmax of aliskiren hemifumarate following 2 week oral dosing of aliskiren hemifumarate at 10 mg.Kg-1 level studied on day 1 in male Callithrix jacchus; assay type: ADME, organism-based; conditions: marmoset, plasma
[11] = Tmax of aliskiren hemifumarate following 2 week oral dosing of aliskiren hemifumarate at 50 mg.Kg-1 level studied on day 1 in male Callithrix jacchus; assay type: ADME, organism-based; conditions: marmoset, plasma
[12] = Effect of 2 week oral dosing of aliskiren hemifumarate at 100 mg.Kg-1 level on blood urea nitrogen level in female Callithrix jacchus; assay type: toxicity, organism-based, Plasma; conditions: marmoset, 336 h
[13] = AUC(0-24h) of aliskiren hemifumarate following 2 week oral dosing of aliskiren hemifumarate at 50 mg.Kg-1 level studied on day 14 in female Callithrix jacchus; assay type: ADME, organism-based; conditions: marmoset, plasma
[14] = Cmax of aliskiren hemifumarate following 8 day once-daily dosing of SPP100B oral solution at 160 mg level studied on day 8 in men; assay type: ADME, organism-based; conditions: male, human, plasma
[15] = Tmax of aliskiren hemifumarate following 4 week oral dietary dosing of aliskiren hemifumarate at 500 mg.Kg-1 level in female mouse; assay type: ADME, organism-based; conditions: CB6F1-TGrasH2, mouse, in vivo
[16] = % of radioactivity recovered as aliskiren in plasma following intravenous administration of [14C] aliskiren hemifumarate at 10 mg.Kg-1 level in rat; assay type: ADME, organism-based, Albino HAN:WIST; conditions: in vivo
[17] = Oral clearance of SPP100 following single oral dose of SPP100 600 mg capsule studied in healthy human; assay type: ADME, organism-based; conditions: plasma
[18] = % SPP100 (0-72h) recovered in faeces following single intravenous dose of [14C] aliskiren hemifumarate at 1 mg.Kg-1 level in marmoset; assay type: ADME, organism-based, Callithrix jacchus, Feces; conditions: in vivo
[19] = % of radioactivity (24h) recovered in urine following single intravenous administration of 10 mg.Kg-1 [14C] aliskiren hemifumarate in male rat; assay type: ADME, organism-based, HAN:WIST(SPF); conditions: in vivo
[20] = % of radioactivity (48h) recovered in cage wash of receiver rat following duodenal infusion of radioactivity through bile from donor rat treated with single intravenous administration of 10 mg.Kg-1 [14C] aliskiren hemifumarate; assay type: ADME, organism-based, HAN:WIST(SPF); conditions: in vivo
[21] = Excretion of radioactivity (0-72h) in urine following single intravenous dose of 10 mg.Kg-1 [14C] aliskiren hemifumarate in mouse; assay type: ADME, organism-based, TgRasH2; conditions: in vivo
[22] = Total excretion (0-96h) of radioactivity in urine, faeces and cage wash following single intravenous dose of 10 mg.Kg-1 [14C] aliskiren hemifumarate in mouse; assay type: ADME, organism-based, Urine/Feces; conditions: rat, in vivo
[23] = Mean excretion of radioactivity (0-24h) in urine and faeces following single intravenous dose of 10 mg.Kg-1 [14C] aliskiren hemifumarate in rat; assay type: ADME, organism-based, Albino HAN:WIST, Urine/Feces; conditions: in vivo
[24] = Cmax/dose (0-96h) of total radioactivity following oral administration of [14C] aliskiren hemifumarate at 100 mg.Kg-1 level in rat; assay type: ADME, organism-based, Albino HAN:WIST, Plasma; conditions: in vivo
[25] = Excretion (48h) of radioactivity in urine following oral administration of [14C] aliskiren hemifumarate at 100 mg.Kg-1 level in rat; assay type: ADME, organism-based, Lister-Hooded; conditions: in vivo
[26] = Apparent terminal half-life (0-168h) of total radioactivity following single intravenous administration of [14C] aliskiren hemifumarate at 1 mg.Kg-1 level in marmoset; assay type: ADME, organism-based, Callithrix jacchus, Plasma; conditions: in vivo
Cytochrome P450 4F3 = molecular target: T1, Cytochrome P450 4F3 (Homo sapiens, UniProt Q08477); assay: Metabolic clearance (ul.min.nmol-1 CYP) of aliskiren hemifumarate for CYP4F3B was determined in human liver microsome incubated with [14C]SPP100 hemifumarate; assay type: ADME; conditions: microsomes
T1 sequence (Q08477 whole entry): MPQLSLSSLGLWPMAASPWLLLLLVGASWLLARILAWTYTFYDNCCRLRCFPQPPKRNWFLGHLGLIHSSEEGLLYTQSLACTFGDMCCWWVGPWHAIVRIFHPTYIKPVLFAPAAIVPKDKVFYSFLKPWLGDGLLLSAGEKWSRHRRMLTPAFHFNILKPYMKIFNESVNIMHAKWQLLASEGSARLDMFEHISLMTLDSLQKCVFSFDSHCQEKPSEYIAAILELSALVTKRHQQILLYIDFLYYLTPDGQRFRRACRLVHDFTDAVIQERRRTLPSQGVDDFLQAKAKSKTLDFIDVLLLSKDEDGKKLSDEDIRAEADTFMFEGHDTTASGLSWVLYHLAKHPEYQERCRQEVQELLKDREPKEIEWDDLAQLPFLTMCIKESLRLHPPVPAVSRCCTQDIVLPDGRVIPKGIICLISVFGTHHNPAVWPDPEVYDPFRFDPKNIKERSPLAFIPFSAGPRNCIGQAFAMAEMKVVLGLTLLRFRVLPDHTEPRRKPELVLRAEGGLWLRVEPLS

[27] = Concentration of radioactivity in the brown fat following repeated oral administration of [14C] aliskiren hemifumarate at 100 mg.Kg-1 level studied at 2h after 3rd dose in rat; assay type: ADME, organism-based, Albino HAN:WIST, Brown adipose tissue; conditions: in vivo
[28] = Mean excretion of radioactivity (24-48h) in urine and faeces following single oral dose of 500 mg.Kg-1 [14C] aliskiren hemifumarate in mouse; assay type: ADME, organism-based, TgRasH2, Urine/Feces; conditions: in vivo
[29] = Excretion of radioactivity (0-24h) in urine following single intravenous dose of 10 mg.Kg-1 [14C] aliskiren hemifumarate in mouse; assay type: ADME, organism-based, TgRasH2; conditions: in vivo
[30] = Excretion (48h) of radioactivity in faeces following oral administration of [14C] aliskiren hemifumarate at 100 mg.Kg-1 level in rat; assay type: ADME, organism-based, Lister-Hooded, Feces; conditions: in vivo

COCCCOc1cc(C[C@@H](C[C@H](N)[C@@H](O)C[C@H](C(=O)NCC(C)(C)C(N)=O)C(C)C)C(C)C)ccc1OC.COCCCOc1cc(C[C@@H](C[C@H](N)[C@@H](O)C[C@H](C(=O)NCC(C)(C)C(N)=O)C(C)C)C(C)C)ccc1OC.O=C(O)/C=C/C(=O)O [ALISKIREN FUMARATE]
Cmax [1]: 312 ng/mL
bioavailability [2]: 3%
Plasma clearance [3]: 1.2 L·h/kg
Tmax [4]: 2.8 h
Tmax [5]: 2 h
Cmax [6]: 1020 ng/mL
Cmax [7]: 439 ng/mL
Cmax [8]: 8830 ng/mL
AUC [9]: 215 ng·h/mL
Cmax [10]: 3960 ng/mL
Tmax [11]: 1 h
BUN_CHANGE_BY [12]: 401%
AUC at 24 h [13]: 109 µg·h/mL
Cmax [14]: 39.1 ng/mL
Tmax [15]: 0 h

COCCCOc1cc(C[C@@H](C[C@H](N)[C@@H](O)C[C@H](C(=O)NCC(C)(C)C(N)=O)C(C)C)C(C)C)ccc1OC
Compound recovery [16]: > 40%
CL/F [17]: 3700 mL/min
Compound recovery [18]: 36%

COCCCOc1cc(C[C@@H](C[C@H](N)[C@@H](O)C[C@H](C(=O)NCC([14CH3])([14CH3])C(N)=O)C(C)C)C(C)C)ccc1OC.O=C(O)/C=C/C(=O)O
Radiolabel recovery [19]: 6.2%
Radiolabel recovery [20]: 4%
Radiolabel recovery [21]: 87.94%
Radiolabel recovery [22]: 96.2%
Radiolabel recovery [23]: 58.6%
Cmax normalised [24]: 0.0042 (umol/L)/(mg/kg)
Cmax normalised ([24]; iv, 10 mg/kg): 2.12 (umol/L)/(mg/kg)
Radiolabel recovery [25]: 0.576%
t1/2 [26]: 39.5 h
CL (Cytochrome P450 4F3): 24 µL·min/nmol
Radiolabel recovery [27]: OUTCOME = Detected
Radiolabel recovery [28]: 10.51%
Radiolabel recovery [29]: 69.49%
Radiolabel recovery [30]: 95.25%
